Columns and labels:
[1] = tested on: Brassica napus microspore cotyledonary embryos; assay: Germination capacity of embryos produced in treated microspore cultures; format: cell-based; details: cotyledonary embryos from 30-40 days cultures, desiccated and cultured under germination conditions
Method: To evaluate the quality of embryos produced in microspore embryogenesis cultures in the presence of the inhibitors, embryo germination assays were performed. Brassica napus microspore cotyledonary embryos originated from control and treated-cultures were used for in vitro embryo germination and conversion to plantlets as previously described (Prem et al., 2012 BMC Plant Biology 12, 127). The 34-40 old dicotyledonous embryos, after air desiccation on sterile filter paper were germinated in MS (Murashige and Skoog) medium containing sucrose 2% (w/v) and gelled with 7 g/L bacteriological agar (w/v). Microspore derived-embryos were incubated for 15-20 days at 18° C. in darkness conditions till activation of radicle and plumule, and quantified in terms of percentage of embryos showing normal growth, similar to zygotic embryo germination.

[2] = tested on: Arabidopsis mesophyll protoplasts; assay: Microcallus formation (proliferation efficiency) in immobilized mesophyll protoplasts; format: cell-based, Arabidopsis thaliana; details: 48 h pulse treatment
Method: Seeds of an Arabidopsis thaliana line overexpressing histone 2B fused with yellow fluorescent protein (H2B-YFP) were surface-sterilized and sown on MS agar. After 24 h stratification, plates were cultured vertically for 7 days under long day conditions (16 h light-8 h dark) at 22° C. Prior to seedling harvest, plates were kept vertically in the dark at 4° C. for 24 h. Protoplasts were isolated from hypocotyl and cotyledons including primary leaves according to Dovzhenko et al., Protoplasma, 222(1-2):107-11 (2003).
Protoplast density was determined by cell counting in a Fuchs-Rosenthal chamber. For immobilization, protoplasts were mixed with equal volumes of 1.2% (w/v) low melting agarose in protoplast buffer, prewarmed at 40° C. and immediately pipetted into a 96-well plate (Ibidi, Germany), prewarmed at 34° C. with 125 μL per well. The plate was immediately centrifuged (2 min, 30 g) and incubated at 4° C. for 5 min, 200 μL of cultivation medium was added on top of each well and the protoplasts were cultivated at 22° C. in the dark. Cultivation medium was composed of macro and micro elements based on Kao K N and Michayluk M R. Planta., 126(2):105-10 (1975), supplemented with 2 μM of 2,4-D and 1 μM of thidiazurone. For PDE inhibitors treatments, PDE inhibitors were dissolved in DMSO and added to the medium with the concentration given (liquid media). […]
An automated microscope (MORE1, Till I.D. GmbH, Munich, Germany) was used for the analysis of protoplast development and for the detection of YFP fluorescence. Transillumination was recorded with 10×0.45 and 20×0.8 objectives (Zeiss); epifluorescence was recorded after excitation with single-mode diode lasers (iBeam smart, Toptica) with excitation of 550 nm (YFP)/green emission filter. […]
Images were recorded immediately after immobilization and 10 days after immobilization (DAIs). […] Quantification of proliferating cells was performed by exploiting shape differences of dividing or closely adjacent nuclei after the application of EDM binary operations on epifluorescence images in comparison with circular fluorescence signals from non-dividing mononucleic cells (Brocher Int. J. Image Process, 8, 30-48 (2014)). Corresponding cellular shape parameters from proliferating microcalli were determined from selecting segmented transillumination images after filtering with processed epiflourescence images using the BioVoxxel binary feature extraction function.
PDE inhibitors were tested for their capability to increase the proliferation rate of Arabidopsis protoplasts isolated from leaves. […] Microscopic images were recorded 10 days after immobilization and proliferating microcalli were identified by the presence of multiple fluorescing nuclei visualized by exploiting the nuclear-encoded H2B-YFP marker (see FIG. 3). […]

Compound	germination capacity / quality of embryos [1]	increased rate of microcalli formation relative to the untreated control ([2]; 1 μM)	microcalli formation rate increased by, relative to the untreated control ([2]; 10 μM)	induction of microcallus formation compared with the untreated control ([2]; 10 μM)
CSc1nc2ccccc2c(=O)n1-c1c(F)cccc1F [TC2.43, 3-(2,6-Difluorophenyl)-2-methylthio-4-oxo-3,4-dihydroquinazoline]	well-developed roots and hypocotyls in most embryos	140%	200%	
COc1ccc(-c2nc(-c3ccccc3Br)[nH]c2-c2ccc(OC)cc2)cc1 [AGF4.17, 2-(2-Bromophenyl)-4,5-bis(4-methoxyphenyl)-1H-imidazole]	well-developed roots and hypocotyls in most embryos			250%
Cc1oc(-c2ccccc2F)nc1CN1CCC[C@@H](C(=O)NCc2cccc(Cl)c2)C1 [JHD1.48, (R)—N-(3-chlorobenzyl)-1-((2-(2-fluorophenyl)-5-methyloxazol-4-yl)methyl) piperidin-3-carboxamide]	well-developed roots and hypocotyls in most embryos		50%	
COc1ccc(C2CNC(=O)C2)cc1OC1CCCC1 (stereo not drawn) [FDA4.22, 4-(3-cyclopentyloxy-4-methoxyphenyl)pyrrolidin-2-one, reference compound]	well-developed roots and hypocotyls in most embryos			
O=C(Nc1c(Cl)cncc1Cl)c1ccc(OC(F)F)c(OCC2CC2)c1 [FDA4.21, 3-(cyclopropylmethoxy)-N-(3,5-dichloropyridin-4-yl)-4-(difluoromethoxy) benzamide, reference compound]	well-developed roots and hypocotyls in most embryos			
